Results taken from ChEMBL document CHEMBL1201862, “PubChem BioAssay data set” (2004).
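All cell lines were grown in 96-well plates and treated with compound for 48 hours. GI50 marks 50% less growth.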 The source made the active and inactive calls. Rule as the data show it: active = GI50 up to about 1.1 µM and inactive = higher.

Assays:
Test in all cases: NCI-60 cell line screen, 48 h
NCI-H460 = system: NCI-H460
SF-539 = system: SF-539
A498 = system: A498
SK-MEL-2 = system: SK-MEL-2
HCT-15 = system: HCT-15
OVCAR-4 = system: OVCAR-4
786-0 = system: 786-0
MOLT-4 = system: MOLT-4
UACC-257 = system: UACC-257
OVCAR-5 = system: OVCAR-5
SW-620 = system: SW-620
RPMI-8226 = system: RPMI-8226
NCI-H23 = system: NCI-H23
K562 = system: K562

SMILES | GI50 (NCI-H460) | GI50 (SF-539) | GI50 (A498) | GI50 (SK-MEL-2) | GI50 (HCT-15) [µM] | GI50 (OVCAR-4) | GI50 (786-0) | GI50 (MOLT-4) | GI50 (UACC-257) | GI50 (OVCAR-5) | GI50 (SW-620) | GI50 (RPMI-8226) | GI50 (NCI-H23) | GI50 (K562)
O=C(CC1(O)C(=O)Nc2c(Cl)ccc(Cl)c21)c1ccc2ccccc2c1 (stereo unspecified) | 9.2 µM (inactive) | 13.5 µM (inactive) | 16.3 µM (inactive) | 11.6 µM (inactive) | 6.19 | 2.29 µM (inactive) | 6.25 µM (inactive) | 10.8 µM (inactive) | 12.2 µM (inactive) | 17.3 µM (inactive) | 3.36 µM (inactive) | 6.75 µM (inactive) | 10.4 µM (inactive) | 2.35 µM (inactive)
Clc1cc(Cl)cc(Nc2nc3ccccc3nc2-c2cccs2)c1 | 14.3 µM (inactive) | 36.1 µM (inactive) |  | > 100 µM (inactive) | > 100 |  | 17.9 µM (inactive) | 47.2 µM (inactive) | 23.7 µM (inactive) | 83.4 µM (inactive) | > 100 µM (inactive) | 40 µM (inactive) | 28.8 µM (inactive) | 
[O-][Cl+3]([O-])([O-])[O-].c1ccc(-c2csc3c4ccccc4c4ccccc4[n+]23)cc1 | 2.51 µM (inactive) | 3.25 µM (inactive) | 14.8 µM (inactive) | 2.54 µM (inactive) | 23.3 | 3.96 µM (inactive) | 4.85 µM (inactive) | 2.18 µM (inactive) | 1.08 µM (active) | 14.3 µM (inactive) | 3.5 µM (inactive) | 4.55 µM (inactive) | 0.553 µM (active) | 0.708 µM (active)
Nc1c(-c2ccc(-c3c(N)[n+]([O-])c4ccccc4[n+]3[O-])cc2)[n+]([O-])c2ccccc2[n+]1[O-] | 14.3 µM (inactive) | 4.92 µM (inactive) | 18.3 µM (inactive) | 13.7 µM (inactive) | 3.92 | 17.7 µM (inactive) | 13.5 µM (inactive) | 33.3 µM (inactive) | 3.47 µM (inactive) | 20.5 µM (inactive) | 4.5 µM (inactive) | 23.8 µM (inactive) | 6.21 µM (inactive) | 15.7 µM (inactive)
CC(=O)NNc1nc(C)c(C(/C=C/c2ccc(/C=C/C(=N\NC(=O)c3ccncc3)c3sc(NNC(C)=O)nc3C)cc2)=N/NC(=O)c2ccncc2)s1 | > 100 µM (inactive) | > 100 µM (inactive) | > 100 µM (inactive) | > 100 µM (inactive) | > 100 |  | > 100 µM (inactive) | > 100 µM (inactive) | 44.5 µM (inactive) | > 100 µM (inactive) | > 100 µM (inactive) | > 100 µM (inactive) | > 100 µM (inactive) | > 100 µM (inactive)
FC(F)(F)c1ccc2nc(Nc3ccc(Cl)c(Cl)c3)c(-c3ccccc3)nc2c1 | 7.05 µM (inactive) | 19.4 µM (inactive) |  | > 100 µM (inactive) | 0.659 |  | 12.1 µM (inactive) | 6.81 µM (inactive) | 85.5 µM (inactive) | > 100 µM (inactive) | 33.4 µM (inactive) | > 100 µM (inactive) | > 100 µM (inactive) | 
COc1cc(CCC(=O)NS(=O)(=O)c2ccccc2)cc(OC)c1OC | > 100 µM (inactive) | > 100 µM (inactive) | > 100 µM (inactive) | > 100 µM (inactive) |  | > 100 µM (inactive) | > 100 µM (inactive) | > 100 µM (inactive) | > 100 µM (inactive) | > 100 µM (inactive) | > 100 µM (inactive) | > 100 µM (inactive) | > 100 µM (inactive) | > 100 µM (inactive)
CCN(CC)CCCNc1nccc2c(C)c3c(cc12)c1cnccc1n3C | 0.0111 µM (active) | 0.0173 µM (active) | 1.18 µM (inactive) |  | 0.0468 | 0.0282 µM (active) | 0.0927 µM (active) | < 0.01 µM (active) |  |  | 0.0233 µM (active) |  | 0.179 µM (active) | 0.0211 µM (active)
COC1=CC(=O)c2ccc(C(C)C)cc2C1(C)C1=NC(C)(C)CO1 (stereo unspecified) | > 100 µM (inactive) | > 100 µM (inactive) |  | > 100 µM (inactive) | > 100 | > 100 µM (inactive) | > 100 µM (inactive) | 81.7 µM (inactive) | 65.8 µM (inactive) |  | > 100 µM (inactive) | 41.4 µM (inactive) | > 100 µM (inactive) | 76 µM (inactive)
O=C(NC12CC3CC(CC(C3)C1)C2)C(=O)c1c[nH]c2ccc(Cl)cc12 | 22.2 µM (inactive) | 16.5 µM (inactive) |  | 26.7 µM (inactive) | 21.2 | 21.2 µM (inactive) | 6.24 µM (inactive) | 7.89 µM (inactive) | 97.1 µM (inactive) | > 100 µM (inactive) |  | 19.9 µM (inactive) | > 100 µM (inactive) | 3.8 µM (inactive)
CSCCC(C(=O)O)N(CC1(O)OCC(O)C(O)C1O)N=O (stereo unspecified) | > 100 µM (inactive) | > 100 µM (inactive) | > 100 µM (inactive) | > 100 µM (inactive) |  |  | > 100 µM (inactive) | > 100 µM (inactive) | > 100 µM (inactive) | > 100 µM (inactive) | > 100 µM (inactive) | > 100 µM (inactive) | > 100 µM (inactive) | > 100 µM (inactive)
